# Several values for one entry are separate records, joined by “and”; a condition that tells them apart may be missing. Equal entries are not always repeated.
# Columns and labels:
# [1] = test system: PSMA-negative cell line, PC3; assay: In vitro cell uptake, PC3 cells; assay type: cell-based; conditions: PC3 (do not express PSMA), 60 min
# Description: To determine the cell uptakes of the [^177Lu] labelled ligands, 5×10^5 cells/well were grown in 12-well plates in 1 mL of medium for 48 h. The cells were washed twice with PBS, and 900 μL fresh media were added. Radiolabelled ligand was added and the PSMA-inhibitor (2-PMPA) was applied in a final concentration of 10 μM to determine unspecific binding. All samples were prepared in triplicate. Following the incubation at 37° C., cells were washed twice to remove unbound activity and afterwards lysed in 1 mL of 0.5 M NaOH. Activity was measured in a gamma counter. Aliquots of the solution added to the cells were also measured for the calculation of the cellular uptake as % ID.
# [2] = test system: PC3-PIP (PSMA positive) and PC-3 tumors (PSMA negative); assay: Biodistribution of 177Lu labeled compounds 4 and 7 in tumor bearing nude mice; assay type: in vivo, CD-1 male nude mice
# Description: (§1) ^177Lu labeling: To 10 μg ligand (1 mg/mL DMSO) were added 15 μL of 2.0 N NaOAc, 400 μL 0.05 N HCl, and 20 μL ^177Lu-solution (780 μCi (Capintec setting 450 (reading×10)). The reaction was heated with a heating block at 95° C. for 1 hour in a 3 mL closed vial. After cooling, the sample was analyzed by HPLC (HPLC: Eclipse XDB-C18 150×4.6 mm, gradient, 1 mL/min; A: 0.1% TFA in water; B: 0.1% TFA in ACN: 0-4 min A/B 85/15%; 4-11 min: from 85/15 to 30/70%; 11-14 min: from 30/70% to 85/15%). Radiochemical purity of [^177Lu]4 (FIG. 2) and [^177Lu]7 was >98% and injected doses were stable at 48 hr after formulation.
# (§2) For iv injection 150 μL of labeled solution was diluted with saline to 3.75mL. Mice were injected with 150 μL of formulated dose. Injected radioactivity was 100 μCi and PSMA ligand amount was constant at 0.72 nmole/mouse.
# Biodistribution of [^68Ga]4, [^177Lu]4 and [^177Lu]7 was determined in nude mice bearing PIP PC3 (PSMA positive) and PC3 (PSMA negative) tumors on the left and right shoulder, respectively, over a period of 192 h (Table 3a, 3b and 3c). […] The uptake in PC3 tumors (PSMA negative) of both ligands, [^177Lu]4 and [^177Lu]7, was clearly much lower than those of PC-3 PIP tumors (PSMA positive).
# [3] = Stability of injected doses after formulation; assay type: physicochemical; conditions: at 48 hr after formulation
# Description: ^68Ga labeling: To 15 nmole ligand 4 (1 mg/mL DMSO) were added 20 μL of 2.0 N NaOAc, 500 μL ^68Ga-solution (2.25 mCi). The reaction was heated in a heating block at 90° C. for 10 minutes in a 3 mL closed vial. After cooling, the sample was analyzed by HPLC (HPLC: Eclise XDB C18 150×4.6 mm, gradient, 2 mL/min; A: 0.1% TFA in water; B: 0.1% TFA in ACN: 0-2 min 100% A; 2-4 min: from 0% to 100% B; 4-9 min: 100% B; 9-10 min: from 100% to 0% B). Radiochemical purity of [^68Ga]4 was >99% RCP (FIG. 1) and injected doses were stable at 2 hr after formulation.
# as §1, §2
# [4] = test system: PSMA-positive cell line, PIP PC3; assay: In vitro cell uptake, PIP PC3 cells; assay type: cell-based
# Description: To determine the cell uptakes of the [^177Lu] labelled ligands, 5×10^5 cells/well were grown in 12-well plates in 1 mL of medium for 48 h. The cells were washed twice with PBS, and 900 μL fresh media were added. […] All samples were prepared in triplicate. Following the incubation at 37° C., cells were washed twice to remove unbound activity and afterwards lysed in 1 mL of 0.5 M NaOH. Activity was measured in a gamma counter. Aliquots of the solution added to the cells were also measured for the calculation of the cellular uptake as % ID.
smiles,measurement,setting,value
O=C(O)CCC(C(=O)O)N1CCN(CC(=O)O)CCN(C(CCC(=O)NCC(=O)N[C@@H](Cc2ccc(OCC(=O)N[C@@H](Cc3ccccc3)C(=O)NCCCC[C@H](NC(=O)N[C@@H](CCC(=O)O)C(=O)O)C(=O)O)cc2)C(=O)O)C(=O)O)CCN(CC(=O)O)CC1.[177Lu] (stereo partly shown) [[^177Lu]4],In vitro cell uptake,[1],0.4 % ID per 5 × 10^5 cells
same,Biodistribution: Blood,[2]; 1 hr,0.27 ± 0.07 % dose/g
same,Biodistribution: Bone,[2]; 1 hr,0.15 ± 0.05 % dose/g
same,Biodistribution: Brain,[2]; 1 hr,0.02 ± 0.01 % dose/g
same,Biodistribution: Heart,[2]; 1 hr,0.17 ± 0.03 % dose/g
same,Biodistribution: Intestine,[2]; 1 hr,0.19 ± 0.08 % dose/g
same,Biodistribution: Kidney,[2]; 1 hr,45.59 ± 20.51 % dose/g
same,Biodistribution: Liver,[2]; 1 hr,0.18 ± 0.05 % dose/g
same,Biodistribution: Lung,[2]; 1 hr,0.63 ± 0.13 % dose/g
same,Biodistribution: Muscle,[2]; 1 hr,0.18 ± 0.06 % dose/g
same,Biodistribution: PC3 tumor,[2]; 1 hr,1.13 ± 0.61 % dose/g
same,Biodistribution: PIP PC3 tumor,[2]; 1 hr,15.27 ± 2.93 % dose/g
same,Biodistribution: Pancreas,[2]; 1 hr,0.43 ± 0.20 % dose/g
same,Biodistribution: Skin,[2]; 1 hr,0.35 ± 0.07 % dose/g
same,Biodistribution: Spleen,[2]; 1 hr,1.42 ± 1.44 % dose/g
same,Biodistribution: Stomach,[2]; 1 hr,0.20 ± 0.10 % dose/g
same,Biodistribution: Blood,[2]; 4 hrs,0.02 % dose/g and 0.02 ± 0.01 % dose/g
same,Biodistribution: Bone,[2]; 4 hrs,0.05 ± 0.01 % dose/g
same,Biodistribution: Brain,[2]; 4 hrs,0.01 ± 0.00 % dose/g
same,Biodistribution: Heart,[2]; 4 hrs,0.11 ± 0.07 % dose/g
same,Biodistribution: Intestine,[2]; 4 hrs,0.21 ± 0.11 % dose/g
same,Biodistribution: Kidney,[2]; 4 hrs,21.17 ± 5.08 % dose/g
same,Biodistribution: Liver,[2]; 4 hrs,0.09 ± 0.03 % dose/g
same,Biodistribution: Lung,[2]; 4 hrs,0.20 ± 0.05 % dose/g
same,Biodistribution: Muscle,[2]; 4 hrs,0.05 ± 0.01 % dose/g
same,Biodistribution: PC3 tumor,[2]; 4 hrs,0.28 ± 0.08 % dose/g
same,Biodistribution: PIP PC3 tumor,[2]; 4 hrs,22.38±3.50 % dose/g
same,Biodistribution: Pancreas,[2]; 4 hrs,0.18 ± 0.10 % dose/g
same,Biodistribution: Skin,[2]; 4 hrs,0.12 ± 0.05 % dose/g
same,Biodistribution: Spleen,[2]; 4 hrs,0.53 ± 0.26 % dose/g
same,Biodistribution: Stomach,[2]; 4 hrs,0.12 ± 0.02 % dose/g
same,Biodistribution: Blood,[2]; 24 hrs (1 day),0.002 ± 0.000 % dose/g
same,Biodistribution: Bone,[2]; 24 hrs (1 day),0.022 ± 0.010 % dose/g
same,Biodistribution: Brain,[2]; 24 hrs (1 day),0.006 ± 0.001 % dose/g
same,Biodistribution: Heart,[2]; 24 hrs (1 day),0.011 ± 0.002 % dose/g
same,Biodistribution: Intestine,[2]; 24 hrs (1 day),0.132 ± 0.114 % dose/g
same,Biodistribution: Kidney,[2]; 24 hrs (1 day),2.291 ± 0.761 % dose/g
same,Biodistribution: Liver,[2]; 24 hrs (1 day),0.036 ± 0.003 % dose/g
same,Biodistribution: Lung,[2]; 24 hrs (1 day),0.024 ± 0.005 % dose/g
same,Biodistribution: Muscle,[2]; 24 hrs (1 day),0.012 ± 0.003 % dose/g
same,Biodistribution: PC3 tumor,[2]; 24 hrs (1 day),0.071 ± 0.010 % dose/g
same,Biodistribution: PIP PC3 tumor,[2]; 24 hrs (1 day),11.29 ± 2.62 % dose/g
same,Biodistribution: Pancreas,[2]; 24 hrs (1 day),0.015 ± 0.004 % dose/g
same,Biodistribution: Skin,[2]; 24 hrs (1 day),0.059 ± 0.029 % dose/g
same,Biodistribution: Spleen,[2]; 24 hrs (1 day),0.047 ± 0.005 % dose/g
same,Biodistribution: Stomach,[2]; 24 hrs (1 day),0.076 ± 0.026 % dose/g
same,Biodistribution: Blood,[2]; 48 hrs (2 days),0.003 ± 0.002 % dose/g
same,Biodistribution: Bone,[2]; 48 hrs (2 days),0.030 ± 0.010 % dose/g
same,Biodistribution: Brain,[2]; 48 hrs (2 days),0.006 ± 0.002 % dose/g
same,Biodistribution: Heart,[2]; 48 hrs (2 days),0.010 ± 0.000 % dose/g
same,Biodistribution: Intestine,[2]; 48 hrs (2 days),0.059 ± 0.036 % dose/g
same,Biodistribution: Kidney,[2]; 48 hrs (2 days),2.359 ± 1.504 % dose/g
same,Biodistribution: Liver,[2]; 48 hrs (2 days),0.069 ± 0.067 % dose/g
same,Biodistribution: Lung,[2]; 48 hrs (2 days),0.032 ± 0.028 % dose/g
same,Biodistribution: Muscle,[2]; 48 hrs (2 days),0.006 ± 0.003 % dose/g
same,Biodistribution: PC3 tumor,[2]; 48 hrs (2 days),0.080 ± 0.034 % dose/g
same,Biodistribution: PIP PC3 tumor,[2]; 48 hrs (2 days),13.98 ± 6.41 % dose/g
same,Biodistribution: Pancreas,[2]; 48 hrs (2 days),0.011 ± 0.001 % dose/g
same,Biodistribution: Skin,[2]; 48 hrs (2 days),0.034 ± 0.015 % dose/g
same,Biodistribution: Spleen,[2]; 48 hrs (2 days),0.133 ± 0.173 % dose/g
same,Biodistribution: Stomach,[2]; 48 hrs (2 days),0.032 ± 0.014 % dose/g
same,Biodistribution: Blood,[2]; 96 hrs (4 days),0.001 ± 0.000 % dose/g
same,Biodistribution: Bone,[2]; 96 hrs (4 days),0.043 ± 0.038 % dose/g
same,Biodistribution: Brain,[2]; 96 hrs (4 days),0.006 ± 0.001 % dose/g
same,Biodistribution: Heart,[2]; 96 hrs (4 days),0.011 ± 0.006 % dose/g
same,Biodistribution: Intestine,[2]; 96 hrs (4 days),0.040 ± 0.028 % dose/g
same,Biodistribution: Kidney,[2]; 96 hrs (4 days),0.623 ± 0.072 % dose/g
same,Biodistribution: Liver,[2]; 96 hrs (4 days),0.031 ± 0.003 % dose/g
same,Biodistribution: Lung,[2]; 96 hrs (4 days),0.020 ± 0.009 % dose/g
same,Biodistribution: Muscle,[2]; 96 hrs (4 days),0.006 ± 0.002 % dose/g
same,Biodistribution: PC3 tumor,[2]; 96 hrs (4 days),0.047 ± 0.012 % dose/g
same,Biodistribution: PIP PC3 tumor,[2]; 96 hrs (4 days),6.90 ± 1.87 % dose/g
same,Biodistribution: Pancreas,[2]; 96 hrs (4 days),0.022 ± 0.011 % dose/g
same,Biodistribution: Skin,[2]; 96 hrs (4 days),0.032 ± 0.019 % dose/g
same,Biodistribution: Spleen,[2]; 96 hrs (4 days),0.033 ± 0.015 % dose/g
same,Biodistribution: Stomach,[2]; 96 hrs (4 days),0.030 ± 0.002 % dose/g
same,Biodistribution: Blood,[2]; 192 hrs (8 days),0.001 ± 0.000 % dose/g
same,Biodistribution: Bone,[2]; 192 hrs (8 days),0.042 ± 0.035 % dose/g
same,Biodistribution: Brain,[2]; 192 hrs (8 days),0.003 ± 0.001 % dose/g
same,Biodistribution: Heart,[2]; 192 hrs (8 days),0.005 ± 0.000 % dose/g
same,Biodistribution: Intestine,[2]; 192 hrs (8 days),0.162 ± 0.087 % dose/g
same,Biodistribution: Kidney,[2]; 192 hrs (8 days),0.177 ± 0.009 % dose/g
same,Biodistribution: Liver,[2]; 192 hrs (8 days),0.021 ± 0.005 % dose/g
same,Biodistribution: Lung,[2]; 192 hrs (8 days),0.006 ± 0.003 % dose/g
same,Biodistribution: Muscle,[2]; 192 hrs (8 days),0.003 ± 0.003 % dose/g
same,Biodistribution: PC3 tumor,[2]; 192 hrs (8 days),0.022 ± 0.002 % dose/g
same,Biodistribution: PIP PC3 tumor,[2]; 192 hrs (8 days),4.21 ± 1.03 % dose/g
same,Biodistribution: Pancreas,[2]; 192 hrs (8 days),0.003 ± 0.001 % dose/g
same,Biodistribution: Skin,[2]; 192 hrs (8 days),0.011 ± 0.003 % dose/g
same,Biodistribution: Spleen,[2]; 192 hrs (8 days),0.032 ± 0.010 % dose/g
same,Biodistribution: Stomach,[2]; 192 hrs (8 days),0.209 ± 0.131 % dose/g
same,Uptake in PC3 tumors (PSMA negative) versus PC-3 PIP tumors (PSMA positive),"[2]; mouse, in vivo",much lower
same,Stability of injected doses,[3],stable
same,Uptakes compared with reference ligand [177Lu]PSMA-617,[4]; PIP PC3,much higher uptakes
same,In vitro cell uptake,"[4]; PIP PC3, 5 min",4.0 % ID per 5 × 10^5 cells
same,In vitro cell uptake,"[4]; PIP PC3, 15 min",7.5 % ID per 5 × 10^5 cells
same,In vitro cell uptake,"[4]; PIP PC3, 30 min",11.2 % ID per 5 × 10^5 cells
same,In vitro cell uptake,"[4]; PIP PC3, 60 min",13.4 % ID per 5 × 10^5 cells
same,In vitro cell uptake,"[4]; PIP PC3, 60 min, with PSMA inhibitor (2-PMPA, 2 uM)",0.9 % ID per 5 × 10^5 cells
same,In vitro cell uptake,"[4]; PIP PC3, 120 min",14.9 % ID per 5 × 10^5 cells

# — patent publication US20220125959A1, “PROSTATE-SPECIFIC MEMBRANE ANTIGEN (PSMA) INHIBITORS AS DIAGNOSTIC AND RADIONUCLIDE THERAPEUTIC AGENTS” (FIVE ELEVEN PHARMA INC., priority 2019, published 2022)
